Test results taken from PubChem BioAssay (NCI).
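Results reflect a 48-hour exposure of cells in 96-well plates to compound at five concentrations. Here, GI50 denotes the concentration required for 50% inhibition of growth. TGI: concentration producing complete growth inhibition.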

Tested on: MDA-MB-468 breast
Experiment: inhibition of tumour cell growth, NCI panel, 48 h

Compound | GI50 [nM] | TGI [µM]
O=c1oc2ccc(Br)cc2c(=O)n1-c1ccc(I)cc1F | 547 | 2.04
CC(=O)OC1CC2C3CCC4C[C@@H](NC(=O)C=C(C)C)CC[C@]4(C)C3CC[C@]2(C)[C@H]1C(C)N(C)C (some centres not stated) | 800 | 2.37
CCCCCCCCn1ccc2cc(NC(=O)Cn3cc(CN4CCCCC4)nn3)ccc21 | 1670 | 3.73
COc1cc(C(=O)N/N=C/c2ccc(N(C)C)cc2)cc(OC)c1OC | 225 | 1.19
COc1cc(/C=C/C(=O)N2CCN(C(=O)c3cc(OC)c(OC)c(OC)c3)CC2)ccc1OCCCOc1cc2c(cc1OC)C(=O)N1CCC[C@H]1C=N2 | 102 | 0.336
Cn1cc(C2=C(c3cn(C)c4ccccc34)C(=O)NC2=O)c2ccccc21 | 650 | > 25
COc1ccc(Nc2cc(C)nc(NCCCNc3ccnc4cc(Cl)ccc34)n2)cc1 | 1390 | 2.79
COc1cc2c(cc1Nc1nc(Nc3cccc(F)c3C(N)=O)c3cc[nH]c3n1)N(C(=O)CN1CCN(C(C)C)CC1)CC2 | 2220 | 5.73
Oc1cc2ccccc2c(-c2c(O)c(O)cc3ccccc23)c1O | 1090 | 17.2
Cn1c(=O)c(Oc2ccc(F)cc2F)cc2cnc(NC3CCS(=O)(=O)CC3)nc21 | > 25000 | > 25
CC(=O)Oc1ccc(/C(=C(\C)c2ccc(Cl)cc2)c2ccc(OCCN3CCCCC3)cc2)cc1 | 1450 | 3.21
CC1=C2C(=C[C@@](C)(COS(C)(=O)=O)[C@@H]2O)C(=O)[C@](C)(O)C12CC2 | 201 | 0.519
CN(C)c1ccc(/C=C/C2=[N+](C)c3ccccc3C2(C)C)cc1 | 555 | 6.19
O=C(Nc1n[nH]c2nnc(-c3cccnc3)cc12)C1CC1 | 805 | 5.02
CCOc1cccc(-c2nc(N)nc(Nc3ccccc3SSc3ccccc3Nc3nc(N)nc(-c4cccc(OCC)c4)n3)n2)c1 | 24200 | > 100
CCN(CC)C1CCC(Nc2c(C(C)=O)cnc3ccc(-c4ccc(O)c(Cl)c4)cc23)CC1 (configuration not stated) | 871 | 15.8
NC(N)=N/N=C/c1ccc(-c2ccc(-c3cc(Cl)cc(Cl)c3)s2)cc1 | 1830 | 3.81
Clc1ccc(-c2cc(-c3ccccc3)nc(NCCNc3ccnc4cc(Cl)ccc34)n2)cc1 | 1480 | 3.15
CC(=O)c1cc(C(=O)c2ccc3c(c2)Sc2ccccc2N3)c2cc(C)ccn12 | 66.3 | 7.21
COc1ccc(N2CCN(C3=C(Cl)C(=O)c4ncccc4C3=O)CC2)cc1 | 1840 | 3.5
COc1ccc(/C=C2\C=C(c3ccccc3)N(CCc3ccccc3)C2=O)cc1OC | 7570 | 42.4
